Measured values: patent publication US20260001928A1 (CORTERIA PHARMACEUTICALS, priority 2022, published 2026)
*1 amine or outer side, *2 acyl side, *3 side chain or, on linkers, in order; H or OH if unused. Where a SMILES comes first, the peptide text is derived from it. Side-chain parts run from the residue outwards. [ ]: non-standard residue; d: D form. The star is where a group is joined. C20 diacid = O=C(O)CCCCCCCCCCCCCCCCCCC(=O)*; C18 diacid = O=C(O)CCCCCCCCCCCCCCCCC(=O)*; C16 diacid = O=C(O)CCCCCCCCCCCCCCC(=O)*; γGlu = O=C(O)[C@H](CCC(=O)[*:2])N[*:1]; Api = NC1(C(=O)O)CCNCC1; Aib = CC(C)(N)C(=O)O

Tests used:
[1] = tested on: Sprague Dawley rats; assay: Effect on systolic blood pressure, telemetry in Sprague Dawley rats; format: in vivo, rat; conditions: 0.1 mg/kg SC; for Systolic blood pressure (Mean) % change from baseline, 8 h / Systolic blood pressure (Mean) % change from baseline, 12 h / Systolic blood pressure (Mean) % change from baseline, 24 h: n=2; for Duration of action: last time point with an effect on BP still observed
Procedure, shortened: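 Sprague Dawley rats with abdominal-aorta telemetry catheters, recovered ≥10 days, received 0.1 mg/kg SC of compound or vehicle. Systolic pressure recorded 1 h pre-dose as baseline, then continuously up to 48 hours, expressed as % change from baseline; duration of action is last time point with a BP effect (n=2).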

[2] = In vitro plasma stability, rat plasma; format: in vitro ADME; parameters: remaining at 2 h: dose or concentration left out as unconfirmed; conditions: male, Sprague Dawley, plasma; Rat PLM, 37° C.
Description: (§1) In vitro plasma metabolic stability was studied in male Sprague Dawley rats and human. Test compounds were incubated at 3 M for 2 hours at 37° C. At each time point (0, 0.25, 1 and 2 h), samples were prepared for analysis by means of a single step protein precipitation technique by adding 150 μL of ethanol, 0.1% formic acid to 50 μL aliquots of plasma. Samples were mixed by vortex for homogeneity and then subjected to centrifugation at 14000 rpm for 15 min. The supernatant (100 μL) was collected, diluted with 100 μL of water, 0.1% formic acid and analyzed by LC-HRMS (TripleTOF 6600+, AB Sciex). For each test compound, the area ratios at each time point were compared to the 0 h area ratio and converted to a percentage remaining.

[3] = In vitro plasma stability, minipig plasma; format: in vitro ADME; parameters: remaining at 2 h: dose or concentration left out as unconfirmed; conditions: pig, plasma; Minipig PLM, 37° C.
[4] = target: T1, CFR1R receptor (Homo sapiens, UniProt P34998); assay: Activity at anti-target CFR1R receptor, cAMP assay in CRF1R-overexpression CHO-K1 cells; format: cell-based; conditions: 100% = Sauvagine at 100 nM; for EC50: cAMP
T1 construct: host or cells: CHO-K1 (clone 2)
T1 sequence (P34998 24-415): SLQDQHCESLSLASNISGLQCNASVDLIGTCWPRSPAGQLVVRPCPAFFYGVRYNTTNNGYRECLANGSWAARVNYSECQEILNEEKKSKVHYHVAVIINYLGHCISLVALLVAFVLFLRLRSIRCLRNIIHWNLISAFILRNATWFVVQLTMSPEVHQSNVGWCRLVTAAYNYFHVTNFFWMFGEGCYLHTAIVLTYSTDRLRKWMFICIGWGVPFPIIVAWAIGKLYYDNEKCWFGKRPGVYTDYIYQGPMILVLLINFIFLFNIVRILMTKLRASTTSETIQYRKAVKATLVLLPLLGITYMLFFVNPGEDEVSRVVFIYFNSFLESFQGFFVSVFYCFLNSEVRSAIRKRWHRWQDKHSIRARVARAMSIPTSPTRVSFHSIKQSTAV
Procedure, shortened: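 Signal is normalised to 100 nM Sauvagine, taken as 100% activation, in clone 2 cells plated at a final 4000 cells/well from frozen stocks.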

[5] = In vitro plasma stability, human plasma; format: in vitro ADME; parameters: dose or concentration left out as unconfirmed; conditions: Human PLM, 37° C.
Description: as §1

[6] = Chemical stability in buffer (pH 7.4 / pH 4.5), % purity loss; format: physicochemical; conditions: 40° C. vs 5° C., 14 or 28 days; for Buffer stability pH 7.4 % purity loss: 100 mM phosphate buffer pH 7.4
Procedure, shortened: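 Compounds dissolved at 10 mg/mL target in 100 mM phosphate (pH 7.4) or 100 mM acetate (pH 4.5) buffer for 1 h at room temperature, then centrifuged. Diluted supernatant stored at 5 °C or 40 °C for 14 or 28 days; % purity loss by LC-UV.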

[7] = target: T2, human CRF2a receptor (Homo sapiens, UniProt Q13324); assay: Activity at human CRF2a receptor, cAMP functional assay in TeloHEAC cells; format: cell-based; conditions: TeloHEAC cells stably expressing human CRF2a receptor, relative to urocortin 2 (100 nM = 100%)
T2 construct: expressed in transfected cells; host or cells: TeloHEAC cells
T2 sequence (Q13324 1-411): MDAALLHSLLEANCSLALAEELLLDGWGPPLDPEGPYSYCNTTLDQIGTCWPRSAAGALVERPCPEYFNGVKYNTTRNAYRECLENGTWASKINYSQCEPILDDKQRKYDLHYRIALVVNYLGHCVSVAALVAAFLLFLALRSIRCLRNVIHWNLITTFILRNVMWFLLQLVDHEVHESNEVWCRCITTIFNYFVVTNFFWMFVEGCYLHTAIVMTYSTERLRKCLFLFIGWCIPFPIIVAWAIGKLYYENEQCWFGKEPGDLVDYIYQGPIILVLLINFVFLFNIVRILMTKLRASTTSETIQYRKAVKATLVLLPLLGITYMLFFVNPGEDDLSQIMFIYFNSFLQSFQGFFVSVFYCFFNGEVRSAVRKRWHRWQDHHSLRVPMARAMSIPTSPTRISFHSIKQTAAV
Procedure, shortened: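 cAMP accumulation was measured by HTRF 665/620 nm ratio after 30 min at 37° C compound exposure (16 twofold dilutions) of CRF2a-expressing TeloHEAC cells, 10000/well, in HEPES-buffered HBSS plus IBMX. Activity was normalised to urocortin 2 at 100 nM (100%), and EC50 was the concentration giving half-maximal activation.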

[8] = In vitro subcutaneous tissue supernatant (SCts) stability and metabolite identification, rat; format: in vitro ADME; parameters: remaining at 2 h: dose or concentration left out as unconfirmed; conditions: male, Sprague Dawley; rat subcutaneous tissue supernatant (SCts), 37° C, 2 h
[9] = in vitro; parameters: dose or concentration left out as unconfirmed; conditions: dog, plasma
[10] = Human PLM; conditions: 37° C., up to 2 hours
[11] = Minipig PLM; conditions: 37° C., up to 2 hours
[12] = Rat PLM; conditions: male Sprague Dawley rats, 37° C., up to 2 hours

Compound | remaining at 2 h [2] [%] | remaining at 2 h [3] [%] | Emax (% I) [4] [% I] | EC50 [4] [nM] | remaining at 2 h [5] [%] | Buffer stability pH 4.5 % purity loss ([6]; 100 mM acetate buffer pH 4.5) | Buffer stability pH 7.4 % purity loss [6] | EC50 [7] [nM] | remaining at 2 h [8] [%] | remaining at 2 h [9] [%] | not cleaved [10] [% remaining at 2 hours] | not cleaved [11] [% remaining at 2 hours] | not cleaved [12] [% remaining at 2 hours] | Systolic blood pressure (Mean) % change from baseline, 8 h [1] [%] | Systolic blood pressure (Mean) % change from baseline, 12 h [1] [%] | Systolic blood pressure (Mean) % change from baseline, 24 h [1] [%] | Duration of action [1] [h]
CC[C@H](C)[C@H](NC(C)=O)C(=O)N[C@H](C(=O)N[C@@H](CC(C)C)C(=O)N[C@@H](CO)C(=O)N[C@@H](CC(C)C)C(=O)N[C@@H](CC(=O)O)C(=O)N[C@@H](C(=O)N1CCC[C@H]1C(=O)N[C@H](C(=O)N[C@@H](CCCCN)C(=O)N[C@@H](CC(C)C)C(=O)N[C@@H](CCCCNC(=O)CC[C@H](NC(=O)CCCCCCCCCCCCCCC(=O)O)C(=O)O)C(=O)N[C@@H](CCCCN)C(=O)N[C@H](C(=O)N[C@@H](CC(C)C)C(=O)N[C@@H](CC(C)C)C(=O)N[C@@H](CCC(=O)O)C(=O)N[C@@H](CCC(N)=O)C(=O)N[C@@H](CCC(=O)O)C(=O)N[C@@H](CCCCN)C(=O)N[C@@H](CCC(N)=O)C(=O)N[C@@H](CCCCN)C(=O)N[C@@H](CCCCN)C(=O)N[C@@H](CCC(N)=O)C(=O)N[C@@H](CCCNC(=N)N)C(=O)N[C@@H](CCC(=O)O)C(=O)N[C@@H](CCC(N)=O)C(=O)N[C@@H](C)C(=O)N[C@@H](CCC(=O)O)C(=O)N[C@H](C(=O)N[C@@H](CC(N)=O)C(=O)NC1(C(=O)N[C@@H](CCC(N)=O)C(=O)N[C@H](C(=O)N[C@@H](CC(C)C)C(=O)N[C@@H](C)C(=O)N[C@@H](CCC(N)=O)C(=O)N[C@H](C(N)=O)C(C)C)[C@@H](C)CC)CCNCC1)[C@@H](C)O)[C@@H](C)CC)[C@@H](C)CC)C(C)C)C(C)C [compound 57] (Ac-IVLSLD[dV]PIKLK([γGlu-C16 diacid])KILLEQEKQKKQREQAETN[Api]QILAQV-NH2) | 96 | 81 | 24 | > 250 | 104 | 0/0 ^ % | 0/0 ^ % | 0.39 | – | – | – | – | – | −34 | −25 | −2 | >24
Ac-IVLSLDvPIKLK*KILLEQEKQKKQREQAETNAibQILAQV-NH2 | – | – | – | – | – | – | – | – | – | – | 93 | 110 | 108 | – | – | – | –
Pentanoyl-VLSLDvPIKLK*KILLEQEKQKKQREQAETNAibQILAQV-NH2 | – | – | – | – | – | – | – | – | – | – | 101 | 104 | 98 | – | – | – | –

Continued, in another order:

remaining at 2 h [2] [%] | remaining at 2 h [3] [%] | Emax (% I) [4] [% I] | EC50 [4] [nM] | remaining at 2 h [5] [%] | Buffer stability pH 4.5 % purity loss ([6]; 100 mM acetate buffer pH 4.5) | Buffer stability pH 7.4 % purity loss [6] | EC50 [7] [nM] | remaining at 2 h [8] [%] | remaining at 2 h [9] [%] | not cleaved [10] [% remaining at 2 hours] | not cleaved [11] [% remaining at 2 hours] | not cleaved [12] [% remaining at 2 hours] | Compound | Systolic blood pressure (Mean) % change from baseline, 8 h [1] [%] | Systolic blood pressure (Mean) % change from baseline, 12 h [1] [%] | Systolic blood pressure (Mean) % change from baseline, 24 h [1] [%] | Duration of action [1] [h]
108 | 110 | 18 | > 250 | 93 | – | 0/nd ^ % | 0.15 | 79 | – | – | – | – | CC[C@H](C)[C@H](NC(C)=O)C(=O)N[C@H](C(=O)N[C@@H](CC(C)C)C(=O)N[C@@H](CO)C(=O)N[C@@H](CC(C)C)C(=O)N[C@@H](CC(=O)O)C(=O)N[C@@H](C(=O)N1CCC[C@H]1C(=O)N[C@H](C(=O)N[C@@H](CCCCN)C(=O)N[C@@H](CC(C)C)C(=O)N[C@@H](CCCCNC(=O)CC[C@H](NC(=O)CCCCCCCCCCCCCCCCC(=O)O)C(=O)O)C(=O)N[C@@H](CCCCN)C(=O)N[C@H](C(=O)N[C@@H](CC(C)C)C(=O)N[C@@H](CC(C)C)C(=O)N[C@@H](CCC(=O)O)C(=O)N[C@@H](CCC(N)=O)C(=O)N[C@@H](CCC(=O)O)C(=O)N[C@@H](CCCCN)C(=O)N[C@@H](CCC(N)=O)C(=O)N[C@@H](CCCCN)C(=O)N[C@@H](CCCCN)C(=O)N[C@@H](CCC(N)=O)C(=O)N[C@@H](CCCNC(=N)N)C(=O)N[C@@H](CCC(=O)O)C(=O)N[C@@H](CCC(N)=O)C(=O)N[C@@H](C)C(=O)N[C@@H](CCC(=O)O)C(=O)N[C@H](C(=O)N[C@@H](CC(N)=O)C(=O)NC(C)(C)C(=O)N[C@@H](CCC(N)=O)C(=O)N[C@H](C(=O)N[C@@H](CC(C)C)C(=O)N[C@@H](C)C(=O)N[C@@H](CCC(N)=O)C(=O)N[C@H](C(N)=O)C(C)C)[C@@H](C)CC)[C@@H](C)O)[C@@H](C)CC)[C@@H](C)CC)C(C)C)C(C)C [compound 125] (Ac-IVLSLD[dV]PIKLK([γGlu-C18 diacid])KILLEQEKQKKQREQAETN[Aib]QILAQV-NH2) | −25 | −16 | 1 | 22
99 | – | 27 | > 250 | 99 | – | −0.1/Not Tested % | 0.22 | 74 | 102 | – | – | – | CC[C@H](C)[C@H](NC(C)=O)C(=O)N[C@H](C(=O)N[C@@H](CC(C)C)C(=O)N[C@@H](CO)C(=O)N[C@@H](CC(C)C)C(=O)N[C@@H](CC(=O)O)C(=O)N[C@@H](C(=O)N1CCC[C@H]1C(=O)N[C@H](C(=O)N[C@@H](CCCCN)C(=O)N[C@@H](CC(C)C)C(=O)N[C@@H](CCCCNC(=O)CC[C@H](NC(=O)CCCCCCCCCCCCCCCCCCC(=O)O)C(=O)O)C(=O)N[C@@H](CCCCN)C(=O)N[C@H](C(=O)N[C@@H](CC(C)C)C(=O)N[C@@H](CC(C)C)C(=O)N[C@@H](CCC(=O)O)C(=O)N[C@@H](CCC(N)=O)C(=O)N[C@@H](CCC(=O)O)C(=O)N[C@@H](CCCCN)C(=O)N[C@@H](CCC(N)=O)C(=O)N[C@@H](CCCCN)C(=O)N[C@@H](CCC(=O)O)C(=O)N[C@@H](CCC(N)=O)C(=O)N[C@@H](CCCNC(=N)N)C(=O)N[C@@H](CCC(=O)O)C(=O)N[C@@H](CCC(N)=O)C(=O)N[C@@H](C)C(=O)N[C@@H](CCC(=O)O)C(=O)N[C@H](C(=O)N[C@@H](CC(N)=O)C(=O)NC(C)(C)C(=O)N[C@@H](CCC(N)=O)C(=O)N[C@H](C(=O)N[C@@H](CC(C)C)C(=O)N[C@@H](C)C(=O)N[C@@H](CCC(N)=O)C(=O)N[C@H](C(N)=O)C(C)C)[C@@H](C)CC)[C@@H](C)O)[C@@H](C)CC)[C@@H](C)CC)C(C)C)C(C)C [compound 213] (Ac-IVLSLD[dV]PIKLK([γGlu-C20 diacid])KILLEQEKQKEQREQAETN[Aib]QILAQV-NH2) | −10 | −18 | −13 | >24
– | – | – | – | – | – | – | – | – | – | 102 | 97 | – | Ac-IVLSLDvPIKLK*KILLEQEKQKKQREQAETNAbuQILAQV-NH2 | – | – | – | –
– | – | – | – | – | – | – | – | – | – | 97 | 106 | 95 | Ac-IVLSLDvPIKαMELK*KILLEQEKQKKQREQAETNAibQILAQV-NH2 | – | – | – | –
– | – | – | – | – | – | – | – | – | – | 91 | 126 | 128 | NMeIVLSLDvPIKLK*KILLEQEKQKKQREQAETNAibQILAQV-NH2 | – | – | – | –
